In ChEMBL document CHEMBL1201862, “PubChem BioAssay data set” (2004):
Activity calls are given as the source filed them. Unless noted, the calls are words filed in the database; no cut-off is given here.

Key:
HeLa = assay: viability loss in HeLa cells – cell-based, ATP luminescence, cherry-pick samples, cytotoxicity control, dose response (AID 687004); assay type: functional; details: Homo sapiens
[1] = A Cell-Based Confirmatory Screen for Compounds that Inhibit VEEV, TC-83 (8).; assay type: functional
[2] = A Cell-Based Confirmatory Screen for Compounds that Inhibit VEEV, TC-83 (7).; assay type: functional
[3] = ATP-based viability loss in HeLa cells – cell-based, CellTiter-Glo luminescence, dry powder, set 2, cytotoxicity control, dose response (AID 720593); assay type: functional
[4] = biological target: Endoplasmic reticulum aminopeptidase 1 (Homo sapiens, UniProt Q9NZ08); assay: inhibition of human ERAP1 enzyme activity – biochemical, cherry-pick, set 2, plate reader, dose response (AID 743314)
Endoplasmic reticulum aminopeptidase 1, sequence (Q9NZ08 whole entry): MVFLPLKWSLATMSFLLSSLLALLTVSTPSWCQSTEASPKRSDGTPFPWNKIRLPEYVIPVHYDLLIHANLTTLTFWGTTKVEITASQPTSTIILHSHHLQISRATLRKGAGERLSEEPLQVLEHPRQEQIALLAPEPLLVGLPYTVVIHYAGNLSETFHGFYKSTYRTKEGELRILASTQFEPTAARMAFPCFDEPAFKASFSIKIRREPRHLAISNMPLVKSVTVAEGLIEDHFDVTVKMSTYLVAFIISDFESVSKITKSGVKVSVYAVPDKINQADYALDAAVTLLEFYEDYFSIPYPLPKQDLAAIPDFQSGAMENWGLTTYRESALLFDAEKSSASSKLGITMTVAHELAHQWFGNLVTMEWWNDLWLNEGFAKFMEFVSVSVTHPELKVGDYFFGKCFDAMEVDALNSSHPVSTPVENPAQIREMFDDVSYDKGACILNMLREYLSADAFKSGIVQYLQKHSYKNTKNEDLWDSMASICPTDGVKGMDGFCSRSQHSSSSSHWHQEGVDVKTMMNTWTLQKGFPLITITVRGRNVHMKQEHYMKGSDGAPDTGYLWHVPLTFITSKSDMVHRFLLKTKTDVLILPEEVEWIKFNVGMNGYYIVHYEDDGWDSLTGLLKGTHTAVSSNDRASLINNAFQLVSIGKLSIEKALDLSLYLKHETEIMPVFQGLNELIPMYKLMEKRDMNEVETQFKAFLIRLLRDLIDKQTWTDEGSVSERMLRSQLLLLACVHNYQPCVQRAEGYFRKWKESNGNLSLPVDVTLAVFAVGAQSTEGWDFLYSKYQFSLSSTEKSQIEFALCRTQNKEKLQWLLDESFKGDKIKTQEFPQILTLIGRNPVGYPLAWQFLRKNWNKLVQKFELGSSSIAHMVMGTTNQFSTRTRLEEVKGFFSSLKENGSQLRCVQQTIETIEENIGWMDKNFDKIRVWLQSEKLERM

[5] = T. cruzi growth inhibition in host cells, dose response, cell-based, plate reader, dry powder, set 2 (AID 652275); assay type: functional
[6] = Late stage assay provider results from the probe development effort to identify inhibitors of the Plasmodium falciparum M17 Leucine Aminopeptidase (M17LAP): radiolabel-based cell-based dose response assay to identify compounds that inhibit P. falciparum growth in RBCs Set 2.; assay type: functional

C(=Nn1cnnc1)c1ccc2c(c1)CCC2
AC50 (HeLa): 28.2 µM (active)

COc1ccc(NC(=O)c2cc([N+](=O)[O-])ccc2/N=C2\CN(C)CCN2C)cc1
IC50 [1]: 0.037 µM (active) | IC50 [2]: 0.04 µM (active)

O=C(Nc1nc(-c2ccccn2)cs1)c1ccc(S(=O)(=O)N2CCOCC2)cc1
AC50 [3]: 41.1 µM (active)

CCCN1[C@@H]2Cn3c(ccc(/C=C/c4ccccc4)c3=O)[C@H]1[C@@H](C(=O)NCc1ccccn1)[C@@H]2CO
AC50 [4]: 8.95 µM (active)

COc1ccc(C#Cc2cccc(-c3nc(C(=O)NCc4ccc5c(c4)OCO5)cc4c3[C@H](CCO)N([S+]([O-])C(C)(C)C)C4)c2)cc1OC (some centres not stated)
AC50 [5]: 0.844 µM (active)

CCCCOc1ccc(CC(=O)N(C)O)cc1
IC50 [6]: 15 µM (inactive)
